Laboratory results from ChEMBL document CHEMBL1201862, “PubChem BioAssay data set” (2004).
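Following 48 hours of exposure in 96-well plates, responses at five concentrations were used to interpolate endpoints linearly. GI50 marks 50% less growth.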 Activity calls are given as the source filed them. Cut-off read from the data, not from the text of the source: active = GI50 up to about 1.1 µM and inactive = higher.

Experiments:
Assay in all cases: inhibition of tumour cell growth, NCI panel, 48 h
786-0 = tested on: 786-0
A498 = tested on: A498
A549 = tested on: A549
ACHN = tested on: ACHN
BT-549 = tested on: BT-549
CAKI-1 = tested on: CAKI-1
CCRF-CEM = tested on: CCRF-CEM
COLO 205 = tested on: COLO 205
DU-145 = tested on: DU-145
EKVX = tested on: EKVX
HCC 2998 = tested on: HCC 2998
HCT-116 = tested on: HCT-116
HCT-15 = tested on: HCT-15
HOP-62 = tested on: HOP-62
HOP-92 = tested on: HOP-92
HT-29 = tested on: HT-29
Hs-578T = tested on: Hs-578T
IGROV-1 = tested on: IGROV-1
K562 = tested on: K562
KM12 = tested on: KM12
LOX IMVI = tested on: LOX IMVI
M14 = tested on: M14
MDA-MB-231 = tested on: MDA-MB-231
MDA-MB-435 = tested on: MDA-MB-435
MDA-N = tested on: MDA-N
MOLT-4 = tested on: MOLT-4
Malme-3M = tested on: Malme-3M
NCI-H226 = tested on: NCI-H226
NCI-H23 = tested on: NCI-H23
NCI-H460 = tested on: NCI-H460
NCI-H522 = tested on: NCI-H522
NCI/ADR-RES = tested on: NCI/ADR-RES
OVCAR-3 = tested on: OVCAR-3
OVCAR-4 = tested on: OVCAR-4
OVCAR-5 = tested on: OVCAR-5
OVCAR-8 = tested on: OVCAR-8
PC-3 = tested on: PC-3
RPMI-8226 = tested on: RPMI-8226
RXF 393 = tested on: RXF 393
SF-268 = tested on: SF-268
SF-295 = tested on: SF-295
SK-MEL-28 = tested on: SK-MEL-28
SK-MEL-2 = tested on: SK-MEL-2
SK-MEL-5 = tested on: SK-MEL-5
SK-OV-3 = tested on: SK-OV-3
SN12C = tested on: SN12C
SNB-19 = tested on: SNB-19
SNB-75 = tested on: SNB-75
SW-620 = tested on: SW-620
T47D = tested on: T47D
TK-10 = tested on: TK-10
U-251 = tested on: U-251
UACC-257 = tested on: UACC-257
UACC-62 = tested on: UACC-62
UO-31 = tested on: UO-31
HL-60 = tested on: HL-60
MCF7 = tested on: MCF7
SF-539 = tested on: SF-539

Q: `CC(=O)O[C@H]1C[C@@H](OC(C)=O)[C@@](C)(O)[C@@H]2[C@@H](OC(C)=O)[C@@]3(O)[C@H](/C=C(/CCl)[C@H]4O[C@H]4[C@@H](OC(C)=O)[C@@]12C)OC(=O)[C@@H]3C` was tested. Which GI50 (786-0) did it give?
A: > 25 µM (inactive)

Q: And the GI50 (A498)?
A: > 25 µM (inactive)

Q: And the GI50 (A549)?
A: > 25 µM (inactive)

Q: What about the GI50 (ACHN) of the same compound?
A: > 25 µM (inactive)

Q: What about the GI50 (BT-549) of the same compound?
A: > 25 µM (inactive)

Q: And the GI50 (CAKI-1)?
A: > 25 µM (inactive)

Q: And the GI50 (CCRF-CEM)?
A: 18.5 µM (inactive)

Q: And the GI50 (COLO 205)?
A: > 25 µM (inactive)

Q: What about the GI50 (DU-145) of the same compound?
A: > 25 µM (inactive)

Q: And the GI50 (EKVX)?
A: > 25 µM (inactive)

Q: And the GI50 (HCC 2998)?
A: > 25 µM (inactive)

Q: And the GI50 (HCT-116)?
A: > 25 µM (inactive)

Q: And the GI50 (HCT-15)?
A: > 25 µM

Q: What about the GI50 (HOP-62) of the same compound?
A: > 25 µM (inactive)

Q: And the GI50 (HOP-92)?
A: > 25 µM (inactive)

Q: And the GI50 (HT-29)?
A: > 25 µM (inactive)

Q: What about the GI50 (Hs-578T) of the same compound?
A: > 25 µM (inactive)

Q: And the GI50 (IGROV-1)?
A: > 25 µM (inactive)

Q: And the GI50 (K562)?
A: > 25 µM (inactive)

Q: What about the GI50 (KM12) of the same compound?
A: > 25 µM (inactive)

Q: And the GI50 (LOX IMVI)?
A: 21.2 µM (inactive)

Q: And the GI50 (M14)?
A: > 25 µM (inactive)

Q: And the GI50 (MDA-MB-231)?
A: > 25 µM (inactive)

Q: And the GI50 (MDA-MB-435)?
A: 19.7 µM (inactive)

Q: And the GI50 (MDA-N)?
A: 12 µM (inactive)

Q: What about the GI50 (MOLT-4) of the same compound?
A: > 25 µM (inactive)

Q: What about the GI50 (Malme-3M) of the same compound?
A: > 25 µM (inactive)

Q: What about the GI50 (NCI-H226) of the same compound?
A: > 25 µM (inactive)

Q: What about the GI50 (NCI-H23) of the same compound?
A: > 25 µM (inactive)

Q: What about the GI50 (NCI-H460) of the same compound?
A: > 25 µM (inactive)

Q: What about the GI50 (NCI-H522) of the same compound?
A: > 25 µM (inactive)

Q: What about the GI50 (NCI/ADR-RES) of the same compound?
A: > 25 µM (inactive)

Q: And the GI50 (OVCAR-3)?
A: > 25 µM (inactive)

Q: And the GI50 (OVCAR-4)?
A: > 25 µM (inactive)

Q: And the GI50 (OVCAR-5)?
A: > 25 µM (inactive)

Q: What about the GI50 (OVCAR-8) of the same compound?
A: > 25 µM (inactive)

Q: And the GI50 (PC-3)?
A: > 25 µM (inactive)

Q: What about the GI50 (RPMI-8226) of the same compound?
A: 9.89 µM (inactive)

Q: What about the GI50 (RXF 393) of the same compound?
A: 19.8 µM (inactive)

Q: And the GI50 (SF-268)?
A: > 25 µM (inactive)

Q: And the GI50 (SF-295)?
A: 17.7 µM (inactive)

Q: And the GI50 (SK-MEL-28)?
A: 17.4 µM (inactive)

Q: And the GI50 (SK-MEL-2)?
A: > 25 µM (inactive)

Q: What about the GI50 (SK-MEL-5) of the same compound?
A: 22.3 µM (inactive)

Q: What about the GI50 (SK-OV-3) of the same compound?
A: > 25 µM (inactive)

Q: What about the GI50 (SN12C) of the same compound?
A: > 25 µM (inactive)

Q: What about the GI50 (SNB-19) of the same compound?
A: > 25 µM (inactive)

Q: And the GI50 (SNB-75)?
A: > 25 µM (inactive)

Q: What about the GI50 (SW-620) of the same compound?
A: > 25 µM (inactive)

Q: What about the GI50 (T47D) of the same compound?
A: > 25 µM (inactive)

Q: And the GI50 (TK-10)?
A: > 25 µM (inactive)

Q: And the GI50 (U-251)?
A: > 25 µM (inactive)

Q: And the GI50 (UACC-257)?
A: > 25 µM (inactive)

Q: What about the GI50 (UACC-62) of the same compound?
A: > 25 µM (inactive)

Q: What about the GI50 (UO-31) of the same compound?
A: > 25 µM (inactive)

Q: With `Nc1ncnc2nc(N3CCN(CCO)CC3)[nH]c12` as the compound, how does the GI50 (786-0) read?
A: > 100 µM (inactive)

Q: What about the GI50 (A498) of the same compound?
A: > 100 µM (inactive)

Q: What about the GI50 (A549) of the same compound?
A: > 100 µM (inactive)

Q: And the GI50 (ACHN)?
A: > 100 µM (inactive)

Q: What about the GI50 (BT-549) of the same compound?
A: > 100 µM (inactive)

Q: And the GI50 (CAKI-1)?
A: > 100 µM (inactive)

Q: What about the GI50 (CCRF-CEM) of the same compound?
A: > 100 µM (inactive)

Q: And the GI50 (COLO 205)?
A: > 100 µM (inactive)

Q: What about the GI50 (DU-145) of the same compound?
A: > 100 µM (inactive)

Q: And the GI50 (EKVX)?
A: > 100 µM (inactive)

Q: And the GI50 (HCC 2998)?
A: > 100 µM (inactive)

Q: What about the GI50 (HCT-116) of the same compound?
A: > 100 µM (inactive)

Q: What about the GI50 (HCT-15) of the same compound?
A: > 100 µM

Q: What about the GI50 (HL-60) of the same compound?
A: > 100 µM (inactive)

Q: And the GI50 (HOP-62)?
A: > 100 µM (inactive)

Q: And the GI50 (HT-29)?
A: > 100 µM (inactive)

Q: And the GI50 (Hs-578T)?
A: > 100 µM (inactive)

Q: What about the GI50 (IGROV-1) of the same compound?
A: > 100 µM (inactive)

Q: And the GI50 (K562)?
A: > 100 µM (inactive)

Q: And the GI50 (KM12)?
A: > 100 µM (inactive)

Q: And the GI50 (LOX IMVI)?
A: > 100 µM (inactive)

Q: What about the GI50 (M14) of the same compound?
A: > 100 µM (inactive)

Q: What about the GI50 (MCF7) of the same compound?
A: > 100 µM (inactive)

Q: What about the GI50 (MDA-MB-231) of the same compound?
A: > 100 µM (inactive)

Q: What about the GI50 (MDA-MB-435) of the same compound?
A: > 100 µM (inactive)

Q: And the GI50 (MDA-N)?
A: > 100 µM (inactive)

Q: And the GI50 (MOLT-4)?
A: 50.6 µM (inactive)

Q: And the GI50 (Malme-3M)?
A: > 100 µM (inactive)

Q: And the GI50 (NCI-H226)?
A: > 100 µM (inactive)

Q: And the GI50 (NCI-H23)?
A: > 100 µM (inactive)

Q: What about the GI50 (NCI-H460) of the same compound?
A: > 100 µM (inactive)

Q: And the GI50 (NCI-H522)?
A: > 100 µM (inactive)

Q: What about the GI50 (NCI/ADR-RES) of the same compound?
A: > 100 µM (inactive)

Q: What about the GI50 (OVCAR-3) of the same compound?
A: > 100 µM (inactive)

Q: What about the GI50 (OVCAR-4) of the same compound?
A: > 100 µM (inactive)

Q: What about the GI50 (OVCAR-5) of the same compound?
A: > 100 µM (inactive)

Q: And the GI50 (OVCAR-8)?
A: > 100 µM (inactive)

Q: And the GI50 (PC-3)?
A: > 100 µM (inactive)

Q: And the GI50 (RPMI-8226)?
A: > 100 µM (inactive)

Q: What about the GI50 (RXF 393) of the same compound?
A: > 100 µM (inactive)

Q: What about the GI50 (SF-268) of the same compound?
A: > 100 µM (inactive)

Q: What about the GI50 (SF-295) of the same compound?
A: > 100 µM (inactive)

Q: And the GI50 (SF-539)?
A: > 100 µM (inactive)

Q: And the GI50 (SK-MEL-28)?
A: > 100 µM (inactive)

Q: What about the GI50 (SK-MEL-2) of the same compound?
A: > 100 µM (inactive)

Q: And the GI50 (SK-MEL-5)?
A: > 100 µM (inactive)

Q: And the GI50 (SK-OV-3)?
A: > 100 µM (inactive)

Q: What about the GI50 (SN12C) of the same compound?
A: > 100 µM (inactive)

Q: What about the GI50 (SNB-19) of the same compound?
A: > 100 µM (inactive)

Q: What about the GI50 (SW-620) of the same compound?
A: > 100 µM (inactive)

Q: What about the GI50 (T47D) of the same compound?
A: > 100 µM (inactive)

Q: What about the GI50 (TK-10) of the same compound?
A: > 100 µM (inactive)

Q: And the GI50 (U-251)?
A: > 100 µM (inactive)

Q: And the GI50 (UACC-257)?
A: > 100 µM (inactive)

Q: What about the GI50 (UACC-62) of the same compound?
A: > 100 µM (inactive)

Q: And the GI50 (UO-31)?
A: > 100 µM (inactive)
